These results are taken from patent US20260355196A1, “INHIBITORS AND DEGRADERS OF PIP4K PROTEIN” (Larkspur Biosciences, Inc., priority 2023, published 2026).

The structures appear in SMILES notation. Where only a bound is given, the exact number is not on record here.

The target in the first experiment is T1, PIP4K2C (Homo sapiens, UniProt Q8TBX8).
T1 sequence (Q8TBX8 1-421): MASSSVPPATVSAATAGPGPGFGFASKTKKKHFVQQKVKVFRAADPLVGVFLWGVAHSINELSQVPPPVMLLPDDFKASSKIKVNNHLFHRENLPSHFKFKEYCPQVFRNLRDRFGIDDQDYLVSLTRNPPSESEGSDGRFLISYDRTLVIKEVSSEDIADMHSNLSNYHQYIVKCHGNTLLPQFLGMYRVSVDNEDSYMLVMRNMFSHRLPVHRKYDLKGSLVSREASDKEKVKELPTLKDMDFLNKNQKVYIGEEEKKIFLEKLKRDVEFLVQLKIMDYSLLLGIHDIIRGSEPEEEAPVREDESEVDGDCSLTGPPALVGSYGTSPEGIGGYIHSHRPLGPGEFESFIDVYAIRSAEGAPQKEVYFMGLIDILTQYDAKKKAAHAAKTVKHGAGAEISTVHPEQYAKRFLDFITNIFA
Description: HiBiT PIP4K2C degradation assay in MOLT-4 cells (endogenous PIP4K2C C-terminally tagged with HiBiT). The format is cell-based. Also on record: untagged in primary human PBMCs and monocyte-derived dendritic cells. To be noted: 6 hours of incubation time, rather than 24 hours; MOLT-4, top concentration 10 micromolar; read-out: HiBIT-degradation MOLT4 PIP4k2C DC50 (6 hours, marked *). In a few lines: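 Endogenous PIP4K2C was C-terminally HiBiT-tagged by CRISPR-Cas9 in MOLT-4 cells, which were treated with a 10-point, 3-fold dilution series from 10 micromolar in duplicate for 24 or 6 hours at 37 C. Remaining protein was read by HiBiT lytic luminescence, and DC50 came from a Hill fit.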
Turning to `Cn1nc(C2CCC(=O)NC2=O)c2ccc(C3CCN(C[C@H]4CC[C@H](OC(=O)N5CCC(Nc6ncc(F)c(-c7cccc(-n8ccccc8=O)c7)n6)CC5)CC4)CC3)cc21` (stereo partly drawn) [Compound 679, trans-4-((4-(3-(2,6-dioxopiperidin-3-yl)-1-methyl-1H-indazol-6-yl)piperidin-1-yl)methyl)cyclohexyl 4-((5-fluoro-4-(3-(2-oxopyridin-1 (2H)-yl)phenyl)pyrimidin-2-yl)amino)piperidine-1-carboxylate], the DC50 (in general, the concentration at which degradation of the target reaches its halfway point) is < 500 nM.
On the same count and under the same terms, as for `O=C1CC[C@H](Nc2ccc(C3CCN(CC4(O)CCN(C(=O)[C@H]5CC[C@H](Nc6ncc(F)c(-c7cccc(N8CCCCC8)c7)n6)CC5)CC4)CC3)c(F)c2)C(=O)N1` [Compound 514, trans-3-((3-fluoro-4-(1-((1-(4-((5-fluoro-4-(3-(piperidin-1-yl)phenyl)pyrimidin-2-yl)amino)cyclohexane-1-carbonyl)-4-hydroxypiperidin-4-yl)methyl)piperidin-4-yl)phenyl)amino)piperidine-2,6-dione], the figure is < 500 nM; as for `O=C1CCC(Nc2ccc(N3CCN([C@H]4CC[C@H](NC(=O)[C@H]5CC[C@H](Nc6ncc(F)c(-c7cccc(N8CCCCC8)c7)n6)CC5)CC4)CC3)c(F)c2)C(=O)N1` (stereo partly drawn) [Compound 527, trans-(1r,4R)—N-((1r,4R)-4-(4-(4-((2,6-dioxopiperidin-3-yl)amino)-2-fluorophenyl)piperazin-1-yl)cyclohexyl)-4-((5-fluoro-4-(3-(piperidin-1-yl)phenyl)pyrimidin-2-yl)amino)cyclohexane-1-carboxamide], < 500 nM; as for `O=C1CCC(Nc2ccc(N3CCC(N4CCC(NC(=O)[C@H]5CC[C@H](Nc6ncc(F)c(-c7cccc(-c8ccc[nH]c8=O)c7)n6)CC5)CC4)C(F)(F)C3)c(F)c2)C(=O)N1` (stereo partly drawn) [Compound 451, trans-N-(1′-(4-((2,6-dioxopiperidin-3-yl)amino)-2-fluorophenyl)-3′,3′-difluoro-[1,4′-bipiperidin]-4-yl)-4-((5-fluoro-4-(3-(2-oxo-1,2-dihydropyridin-3-yl)phenyl)pyrimidin-2-yl)amino)cyclohexane-1-carboxamide], < 500 nM.
For `O=C1CCC(Nc2ccc(N3CCN(CC4CCN(C(=O)[C@H]5CC[C@H](Nc6ncc(F)c(-c7cccc(-c8ccccc8)c7)n6)CC5)CC4)CC3)c(F)c2)C(=O)N1` (stereo partly drawn) [Compound 485, trans-3-((4-(4-((1-(4-((4-([1,1′-biphenyl]-3-yl)-5-fluoropyrimidin-2-yl)amino)cyclohexane-1-carbonyl)piperidin-4-yl)methyl)piperazin-1-yl)-3-fluorophenyl)amino)piperidine-2,6-dione], the half-maximal degradation concentration (DC50) was < 500 nM.
Still for that read-out and setting: as for `O=C1CCC(Nc2ccc(N3CCC(N4CCC(C(=O)N[C@H]5CC[C@H](Nc6ncc(F)c(-c7cccc(-c8ccc[nH]c8=O)c7)n6)CC5)CC4)CC3)c(F)c2)C(=O)N1` (stereo partly drawn) [Compound 429, trans-1′-(4-((2,6-dioxopiperidin-3-yl)amino)-2-fluorophenyl)-N-(4-((5-fluoro-4-(3-(2-oxo-1,2-dihydropyridin-3-yl)phenyl)pyrimidin-2-yl)amino)cyclohexyl)-[1,4′-bipiperidine]-4-carboxamide], the figure is < 500 nM.
Regarding `O=C1CCC(Nc2ccc(N3CCC(N4CCC(NC(=O)[C@H]5CC[C@H](Nc6ncc(F)c(-c7cccc(N8CCOCC8=O)c7)n6)CC5)CC4)C(F)C3)c(F)c2)C(=O)N1` (stereo partly drawn) [Compound 476, trans-N-(1′-(4-((2,6-dioxopiperidin-3-yl)amino)-2-fluorophenyl)-3′-fluoro-[1,4′-bipiperidin]-4-yl)-4-((5-fluoro-4-(3-(3-oxomorpholino)phenyl)pyrimidin-2-yl)amino)cyclohexane-1-carboxamide], the DC50 was < 500 nM.
As for `O=C1CCC(Nc2ccc(N3CCN(C[C@H]4CC[C@H](CNC(=O)[C@H]5CC[C@H](Nc6ncc(F)c(-c7cccc(N8CCCOC8=O)c7)n6)CC5)CC4)CC3)c(F)c2)C(=O)N1` (stereo partly drawn) [Compound 591, trans-(1r,4R)—N-(((1r,4R)-4-((4-(4-((2,6-dioxopiperidin-3-yl)amino)-2-fluorophenyl)piperazin-1-yl)methyl)cyclohexyl)methyl)-4-((5-fluoro-4-(3-(2-oxo-1,3-oxazinan-3-yl)phenyl)pyrimidin-2-yl)amino)cyclohexane-1-carboxamide], the DC50 is < 500 nM.
With `O=C1CCC(Nc2ccc(N3CCN([C@H]4CC[C@H](NC(=O)[C@H]5CC[C@H](Nc6ncc(F)c(-c7cccc(N8CCOCC8=O)c7)n6)CC5)CC4)CC3)c(F)c2)C(=O)N1` (stereo partly drawn) [Compound 508, trans-N-(trans-4-(4-(4-((2,6-dioxopiperidin-3-yl)amino)-2-fluorophenyl)piperazin-1-yl)cyclohexyl)-4-((5-fluoro-4-(3-(3-oxomorpholino)phenyl)pyrimidin-2-yl)amino)cyclohexane-1-carboxamide], the half-maximal degradation concentration (DC50) was < 500 nM.
Same read-out and setting: as for `O=C1CCC(Nc2ccc(C3CCN(C[C@H]4CC[C@H](C(=O)N5CCC(Nc6ncc(F)c(-c7cccc(-n8ccccc8=O)c7)n6)CC5)CC4)CC3)c(F)c2)C(=O)N1` (stereo partly drawn) [Compound 693, 3-((3-fluoro-4-(1-(((trans)-4-(4-((5-fluoro-4-(3-(2-oxopyridin-1 (2H)-yl)phenyl)pyrimidin-2-yl)amino)piperidine-1-carbonyl)cyclohexyl)methyl)piperidin-4-yl)phenyl)amino)piperidine-2,6-dione], the figure is < 500 nM.

The same experiment, now with this note: 24 hours incubation, MOLT-4, top concentration 10 micromolar; read-out: HiBIT-degradation MOLT4 PIP4k2C 24 hours DC50.
`O=C1CCC(n2c(=O)oc3cc(N4CCC(CN5CCC(O)(CC(=O)N6CCC(Nc7ncc(F)c(-c8cccc(-n9ccccc9=O)c8)n7)CC6)CC5)CC4)ccc32)C(=O)N1` (centres unmarked) [Compound 380, 3-(6-(4-((4-(2-(4-((5-fluoro-4-(3-(2-oxopyridin-1(2H)-yl)phenyl)pyrimidin-2-yl)amino)piperidin-1-yl)-2-oxoethyl)-4-hydroxypiperidin-1-yl)methyl)piperidin-1-yl)-2-oxobenzo[d]oxazol-3 (2H)-yl)piperidine-2,6-dione]: the DC50 was < 500 nM.
The same measure, in the same setting: the same measure for `Cn1c(=O)n(C2CCC(=O)NC2=O)c2ccc(C3CCN(CCC4CCN(C(=O)[C@H]5CCC[C@@H](Nc6ncc(Cl)c(-c7cccc(-c8ccc(F)cc8)c7)n6)C5)CC4)CC3)cc21` (relative stereo) [Compound 279, cis-3-(5-(1-(2-(1-(3-((5-chloro-4-(4′-fluoro-[1,1′-biphenyl]-3-yl)pyrimidin-2-yl)amino)cyclohexane-1-carbonyl)piperidin-4-yl)ethyl)piperidin-4-yl)-3-methyl-2-oxo-2,3-dihydro-1H-benzo[d]imidazol-1-yl)piperidine-2,6-dione]: < 500 nM; for `O=C(COc1ccc2c(c1)CN(C1CCC(=O)NC1=O)C2=O)NCCCC(=O)N1CCC(C(=O)N2CCC(Nc3ncc(Cl)c(-c4cccc(-c5ccccc5)c4)n3)CC2)CC1` (centres unmarked) [Compound 68, N-(4-(4-(4-((4-([1,1′-biphenyl]-3-yl)-5-chloropyrimidin-2-yl)amino)piperidine-1-carbonyl)piperidin-1-yl)-4-oxobutyl)-2-((2-(2,6-dioxopiperidin-3-yl)-1-oxoisoindolin-5-yl)oxy)acetamide]: < 500 nM; for `O=C1CCC(N2Cc3cc(C4CCN(CC5CCN(C(=O)[C@H]6CCC[C@@H](Nc7ncc(Cl)c(-c8cccc(-c9ccccc9)c8)n7)C6)CC5)CC4)ccc3C2=O)C(=O)N1` (relative stereo) [Compound 63, cis-3-(5-(1-((1-(3-((4-([1,1′-biphenyl]-3-yl)-5-chloropyrimidin-2-yl)amino)cyclohexane-1-carbonyl)piperidin-4-yl)methyl)piperidin-4-yl)-1-oxoisoindolin-2-yl)piperidine-2,6-dione]: < 500 nM.
Consider `O=C1CCC(Nc2ccc(C3CCN(CCC4(O)CCN(C(=O)[C@H]5CCC[C@@H](Nc6ncc(F)c(-c7cccc(-n8ccccc8=O)c7)n6)C5)CC4)CC3)c(F)c2)C(=O)N1` (relative stereo) [Compound 348, cis-3-((3-fluoro-4-(1-(2-(1-(3-((5-fluoro-4-(3-(2-oxopyridin-1(2H)-yl)phenyl)pyrimidin-2-yl)amino)cyclohexane-1-carbonyl)-4-hydroxypiperidin-4-yl)ethyl)piperidin-4-yl)phenyl)amino)piperidine-2,6-dione], for which the DC50 is < 500 nM.
`O=C1CCC(n2c(=O)oc3cc(N4CCC(N5CCC(C(=O)N[C@H]6CC[C@H](Nc7ncc(F)c(-c8cccc(-n9ccccc9=O)c8)n7)CC6)CC5)CC4)ccc32)C(=O)N1` (stereo partly drawn) [Compound 317, trans-1′-(3-(2,6-dioxopiperidin-3-yl)-2-oxo-2,3-dihydrobenzo[d]oxazol-6-yl)-N-(4-((5-fluoro-4-(3-(2-oxopyridin-1(2H)-yl)phenyl)pyrimidin-2-yl)amino)cyclohexyl)-[1,4′-bipiperidine]-4-carboxamide]: the DC50 was < 500 nM.
For the molecule `O=C(COc1ccc2c(c1)CN(C1CCC(=O)NC1=O)C2=O)NCCC(=O)N1CCC(C(=O)N2CCC(Nc3ncc(Cl)c(-c4cccc(-c5ccccc5)c4)n3)CC2)CC1` (centres unmarked) [Compound 67, N-(3-(4-(4-((4-([1,1′-biphenyl]-3-yl)-5-chloropyrimidin-2-yl)amino)piperidine-1-carbonyl)piperidin-1-yl)-3-oxopropyl)-2-((2-(2,6-dioxopiperidin-3-yl)-1-oxoisoindolin-5-yl)oxy)acetamide], the DC50 was < 500 nM.
